These compounds were tested against human mOR (Homo sapiens (Human), UniProt P35372) (assay: cell-based). Settings: not given.
human mOR, sequence (P35372 whole entry): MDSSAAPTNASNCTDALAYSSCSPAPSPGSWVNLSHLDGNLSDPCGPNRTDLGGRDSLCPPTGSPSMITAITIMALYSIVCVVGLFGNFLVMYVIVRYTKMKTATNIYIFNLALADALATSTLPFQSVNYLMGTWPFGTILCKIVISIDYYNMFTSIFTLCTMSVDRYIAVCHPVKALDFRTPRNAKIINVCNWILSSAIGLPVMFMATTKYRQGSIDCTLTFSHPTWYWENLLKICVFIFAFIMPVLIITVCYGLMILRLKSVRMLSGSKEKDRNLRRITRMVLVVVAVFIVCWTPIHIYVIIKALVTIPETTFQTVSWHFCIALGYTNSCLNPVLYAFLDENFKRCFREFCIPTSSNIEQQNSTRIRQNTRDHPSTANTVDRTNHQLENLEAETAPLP
Procedure: CHO Tag-lite human mOR stable cell line from Cisbio (NCBI accession number: NM_000914.3, Bedford, Mass.) were seeded and grown to approximately 80% confluence in Ham F-12 with 10% FBS, 50 U/ml penicillin, 50 μg/ml streptomycin, 2 mM Hepes, and 1 mg/ml geneticin (Invitrogen, Carlsbad, Calif.). Cells were then harvested using accutase (Corning. Coming, N.Y.), centrifuged at 1300 RPM for 5 min, and plated at 5000 cells per 5 μL per well in a 5× dilution of stimulation buffer consisting of the HTRF cAMP Gi kit, water and IBMX at 0.5 mM (Cisbio, Bedford, Mass.) in white HTRF low volume 384 well plates (Cisbio, Bedford, Mass.). Plates were then incubated at 37° C. in 5% CO2 for 10 minutes. For the agonist assay, forskolin was added to a final concentration of 4 μM. […] Test compounds were dissolved in DMSO and water, and then serially diluted to working concentrations such that the concentration of DMSO was less than 0.1%. Diluted test compounds were added at 2.5 μL per well, and plates were incubated at 37° C., and 5% CO2 for 15 minutes, and then at room temperature for 15 minutes. Next 5 μl/well of cAMP Eu-cryptate and 5 μl/well of anti-cAMP-d2 (both diluted 1:20 in lysis buffer) were added, and plates were incubated at room temperature for 1 hour. Following incubation, plates were read in a Synergy Neo2 multi-mode reader (Biotek, Winooski, Vt.). […] For the agonist assay, data was normalized using the maximal DAMGO response. Measurements were performed in triplicate and the dose response was fit using nonlinear regression.
With `CNC(=O)c1ccc(C[C@@H](CNC(=O)CC(c2cccnc2)C2(C(F)(F)F)CC2)N(C)C)c(Cl)c1F` (stereo in doubt) [Compound 109, 3-chloro-4-((S)-2-(dimethylamino)-3-((S)-3-(pyridin-3-yl)-3-(1-(trifluoromethyl)cyclopropyl)propanamido)propyl)-2-fluoro-N-methylbenzamide] the IC50 was under 300 nM. Compound `CNC(=O)c1ccc(C[C@@H](CNC(=O)CC(c2cccnc2)C2(C(F)(F)F)CC2)N(C)C)c(C)c1F` (stereo in doubt) [Compound 124, 4-((S)-2-(dimethylamino)-3-((S)-3-(pyridin-3-yl)-3-(1-(trifluoromethyl)cyclopropyl)propanamido)propyl)-2-fluoro-N,3-dimethylbenzamide] has an IC50 of over 3000 nM. Work on `CNC(=O)c1ccc(C[C@@H](CNC(=O)CC(c2ccncc2)C2(C(F)(F)F)CC2)N(C)C)c(C)c1` (stereo in doubt) [Compound 130, 4-((S)-2-(dimethylamino)-3-((S)-3-(pyridin-4-yl)-3-(1-(trifluoromethyl)cyclopropyl)propanamido)propyl)-N,3-dimethylbenzamide] yielded an IC50 of under 300 nM. `Cc1ncc([C@@H](CC(=O)NC[C@H](Cc2ccc(C(N)=O)c(F)c2F)N(C)C)C2(C(F)(F)F)CC2)s1` [Compound 1, 4-((S)-2-(dimethylamino)-3-((S)-3-(2-methylthiazol-5-yl)-3-(1-(trifluoromethyl)cyclopropyl)propanamido)propyl)-2,3-difluorobenzamide] gave an IC50 of under 300 nM. `Cc1ncc([C@@H](CC(=O)NC[C@H](Cc2ccc(C(N)=O)c(F)c2F)N(C)C)C2(C(F)(F)F)CC2)cn1` [Compound 3, 4-((S)-2-(dimethylamino)-3-((R)-3-(2-methylpyrimidin-5-yl)-3-(1-(trifluoromethyl)cyclopropyl)propanamido)propyl)-2,3-difluorobenzamide] gave an IC50 of under 300 nM. With `Cc1ccc([C@@H](CC(=O)NC[C@H](Cc2ccc(C(N)=O)c(F)c2F)N(C)C)C2(C(F)(F)F)CC2)cn1` [Compound 4, 4-((S)-2-(dimethylamino)-3-((R)-3-(6-methylpyridin-3-yl)-3-(1-(trifluoromethyl)cyclopropyl)propanamido)propyl)-2,3-difluorobenzamide] the IC50 was under 300 nM. With `CN(C)[C@H](CNC(=O)C[C@@H](c1ncc(Cl)cn1)C1(C(F)(F)F)CC1)Cc1cc(F)c(C(N)=O)cc1F` [Compound 5, 4-[(2S)-3-[(3R)-3-(5-chloropyrimidin-2-yl)-3-[1-(trifluoromethyl)cyclopropyl]propanamido]-2-(dimethylamino)propyl]-2,5-difluorobenzamide] the IC50 was 300 to 3000 nM. For `Cc1ncc([C@@H](CC(=O)NC[C@H](Cc2ccc(C(N)=O)c(F)c2Cl)N(C)C)C2(C(F)(F)F)CC2)s1` [Compound 16, 3-chloro-4-[(2S)-2-(dimethylamino)-3-[(3S)-3-(2-methyl-1,3-thiazol-5-yl)-3-[1-(trifluoromethyl)cyclopropyl]propanamido]propyl]-2-fluorobenzamide], the IC50 was under 300 nM. For `CN(C)[C@H](CNC(=O)CC(c1ccncc1)C1(C(F)(F)F)CC1)Cc1ccc(C(N)=O)c(F)c1Cl` (stereo partly drawn) [Compound 19, 3-chloro-4-[(2S)-2-(dimethylamino)-3-[3-(pyridin-4-yl)-3-[1-(trifluoromethyl)cyclopropyl]propanamido]propyl]-2-fluorobenzamide], the IC50 was under 300 nM.

Same assay, conditions: CHO Tag-lite human mOR stable cell line; forskolin 4 μM and DAMGO at EC90; read-out: mOR cAMP Antagonist Assay IC50
For `CNC(=O)c1ccc(C[C@@H](CNC(=O)C[C@@H](c2ccncc2)C2(C(F)(F)F)CC2)N(C)C)c(Cl)c1F` (single isomer, unassigned) [Compound 111], the IC50 was under 300 nM. `CN(C)[C@H](CNC(=O)C[C@H](c1cncs1)C1(C(F)(F)F)CC1)Cc1ccc(C(N)=O)c(F)c1F` [Compound 2, 4-((S)-2-(dimethylamino)-3-((S)-3-(thiazol-5-yl)-3-(1-(trifluoromethyl)cyclopropyl)propanamido)propyl)-2,3-difluorobenzamide] gave an IC50 of under 300 nM.

Reference: patent US11634396B2 (priority 2021, dated 2023)
